Values joined by “and” are separate entries in the source; they are usually repeats but may differ in a detail not shown here. Equal entries are not always repeated.
Key:
[1] = tested on: rat lung cells; assay: Comet assay in presence of FPG, lung; conditions: with FPG, 5 days; for TI (%), mean of medians from 2 slides: individual animals
Description: Animals were anesthetized by 3.5% isoflurane (approximately 3 min, evaporator Dräger Vapor 19.3) and then killed by cervical dislocation. The liver was removed and its left lateral lobe used for the Comet assay. The remainder of the liver was washed in saline and then in two aliquots shock frozen in liquid nitrogen and stored at − 80 °C for later examinations. Subsequently the lung was removed from the dead animal. Its left lobe was used for the Comet assay and the remainder treated as described above for the liver. Thereafter the femora were removed for the preparation of the bone marrow.
The Comet assay was performed under alkaline conditions according to the principles described by Singh et al. ([1988]) and Tice et al. ([2000]).
Liver and lung cells were obtained essentially as described by Hartmann et al. ([2004]) and by the Japanese Center for the Validation of Alternative Methods (JaCVAM [2009]). Single cells were obtained within 1 h after killing of the animals in order to minimize DNA damage during the preparation.
The organ parts (see above) were washed in mincing buffer (50 mM EDTA in HBSS [without Ca^2+ and Mg^2+] pH 7.5: DMSO 9:1 (v/v), the latter added shortly before use, stored at 4 °C), cut into 1 to 2-mm pieces in ice-cold mincing buffer and transferred to a cell sieve with 70-µm pores. The viability of the cell suspension was evaluated by the Trypan Blue Assay (Strober [2001]).
100 µL of the obtained cell suspension was mixed at 37 °C with 900 µL Low Melting Agarose (LMA) (0.7% agarose in phosphate-buffered saline [PBS] [Biochrom, Berlin, Germany] without Ca^2+ and Mg^2+). 100 µL of this mixture was transferred to a slide, which had been coated with Normal Melting Agarose (NMA) (0.6% agarose in PBS without Ca^2+ and Mg^2+). The slides were protected with a cover slip and the agarose was hardened at approximately 4 °C. The cover slips were then removed and the slides put over night at 4 °C into lysis buffer (2.5 M NaCl, 125 mM NaOH, 127 mM EDTA, 10 mM Tris/NaOH, pH 10; 1% Triton X-100 and 10% DMSO (v/v), the latter two added before use) in order to lyse the cell membrane, nuclear membrane and remove the histone.
The then following procedures were performed in a shaded room to minimize UV-mediated DNA damage during the procedures.
Those slides which were destined to be treated with the DNA base excision repair enzyme FPG (Sigma Aldrich, Steinheim, Germany) were washed (3 times for 5 min) with FPG buffer (0.04 M HEPES, 0.5 mM EDTA, 0.1 M KCl, pH 8; add shortly before use bovine serum albumin [BSA] to a final concentration of 0.02%). Subsequently 50 µL FPG-enzyme-buffer (prepared shortly prior to use by 30-fold dilution of the following suspension in FPG buffer: 7 µL FPG-enzyme (14 U) and 70 µL glycerol in 623 µL FPG-Puffer, stored at − 80 °C) was pipetted on the slide which was covered with a cover slide and incubated for 30 min at 37 °C while being placed on a humid filter paper. After hardening of the agarose cover slips were removed.
Remaining lysis buffer or FPG buffer was removed by immersing/washing the slides in PBS (without Ca^2+ and Mg^2+).

[2] = tested on: rat liver; assay: Liver histology, Oil Red O staining; type: in vivo; conditions: high dose group (20 ppm)
Description: ORO staining was performed essentially according to Lillie and Ashburn ([1943]), specifically under the following conditions:
Parts of the frozen (− 80 °C) livers from rats treated with 0, 5, 10 or 20 ppm NVP were soaked in tap water and then thoroughly frozen at − 40 °C. Subsequently they were cut at -10 to -15 °C into slices of 12–20 µm and stored in water until starting the staining procedure. The slices were then left for approximately 5 min in 60% isopropanol, subsequently stained for 10–12 min in ORO solution (5 g ORO dissolved in 1 L isopropanol, to this solution added 400 mL H2O, left at room temperature for 24 h and then filtered) and subsequently differentiated by immersing 2–3 times into 60% isopropanol. Afterwards they were left in water until they collected at the surface. Finally the slices were stained for 3 min in hematoxylin solution (1 g hematoxylin, 50 g KAl(SO4)2, 50 g chloral hydrate, 1 g citric acid/L H2O, then for maturation 0.2 g NaIO3/L). Subsequently they were left at least 10 min in water. Finally, the slices were transferred to microscope slides and covered with 40–60 °C warm Kaiser’s glycerol gelatin.

[3] = tested on: CYP 2B/3A; assay: BROD inhibition control in Aroclor 1254-induced rat liver microsomes; type: biochemical; conditions: for BROD enzyme activity: 0 µM control 445.1 ± 9.1
Description: For determination of the enzyme activities in triplicates, 85 µL master mix (100 mM TrisHCl pH 7.5, 2 mM 5’AMP, 5 mM G-6-P, 10 U G-6-P-DH, 10 mM Dicumarol, 10 mM MgCl2, either 2 µM EROD or 10 µM PROD or 5 µM BROD) was added to 10 µL microsomal fraction (1 mg protein/mL). The reaction was started by the addition of 5 µL 2 mM NADPH (dissolved in 100 mM TrisHCl pH 7.5) followed by incubation at 37 °C for 16 min. The activity was determined by measuring the increase of the fluorescence (excitation at 550 nm, emission at 585 nm) due to resorufin formation compared with resorufin standards, which had been prepared by dissolving tenfold concentrated solutions in DMSO, which were then diluted tenfold in 100 mM TrisHCl pH 7.5.
As a method control the described AROD assay was performed with microsomal fractions derived from liver and lung of male Wistar rats which had been treated i.p. for 5 days with aroclor 1254 (500 mg/kg bw). These control assays were performed in presence of 1 μM, 10 μM or 100 μM NVP, respectively, in order to check for potential interactions of NVP with the substrate turnover in the AROD assay.

SMILES: C=CN1CCCC1=O [NVP, N-vinylpyrrolidone]
- Hedgehogs/100 cells (mean ± SD) ([1]; female, 5 ppm inhalation): 3 ± 2 /100 cells
- TI (%) (mean ± SD) ([1]; female, 5 ppm inhalation): 7.8 ± 1.30%
- TI (%), mean of medians from 2 slides ([1]; female, 5 ppm inhalation): 8.6% and 7.0% and 6.8% and 10.1% and 7.1% and 7.3%
- Hedgehogs/100 cells (mean ± SD) ([1]; female, 10 ppm inhalation): 1 ± 1 /100 cells
- TI (%) (mean ± SD) ([1]; female, 10 ppm inhalation): 7.2 ± 1.81%
- TI (%), mean of medians from 2 slides ([1]; female, 10 ppm inhalation): 8.7% and 8.1% and 7.9% and 8.4% and 6.0% and 4.0%
- Hedgehogs/100 cells (mean ± SD) ([1]; female, 20 ppm inhalation): 3 ± 1 /100 cells
- TI (%) (mean ± SD) ([1]; female, 20 ppm inhalation): 7.4 ± 2.90%
- TI (%), mean of medians from 2 slides ([1]; female, 20 ppm inhalation): 6.2% and 8.6% and 10.2% and 2.3% and 7.7% and 9.7%
- Hedgehogs/100 cells (mean ± SD) ([1]; male, 5 ppm inhalation): 2 ± 2 /100 cells
- TI (%) (mean ± SD) ([1]; male, 5 ppm inhalation): 6.4 ± 0.69%
- TI (%), mean of medians from 2 slides ([1]; male, 5 ppm inhalation): 6.1% and 7.5% and 6.6% and 5.5% and 6.5%
- Hedgehogs/100 cells (mean ± SD) ([1]; male, 10 ppm inhalation): 4 ± 4 /100 cells
- TI (%) (mean ± SD) ([1]; male, 10 ppm inhalation): 7.9 ± 3.21%
- TI (%), mean of medians from 2 slides ([1]; male, 10 ppm inhalation): 12.0% and 3.6% and 6.0% and 7.3% and 7.2% and 11.4%
- Hedgehogs/100 cells (mean ± SD) ([1]; male, 20 ppm inhalation): 1 ± 1 /100 cells
- TI (%) (mean ± SD) ([1]; male, 20 ppm inhalation): 3.9 ± 0.72%
- TI (%), mean of medians from 2 slides ([1]; male, 20 ppm inhalation): 3.8% and 3.5% and 5.2% and 3.6% and 3.3% and 4.2%
- Lipid-staining (oil red O) of centrilobular hepatocellular fatty change [2]: positive for only one male and one female animal
- BROD enzyme activity ([3]; 1 µM NVP): 470.1 ± 29.7 pmol/min/mg protein
- BROD enzyme activity ([3]; 10 µM NVP): 445.1 ± 20.9 pmol/min/mg protein
- BROD enzyme activity ([3]; 100 µM NVP): 456.5 ± 30.9 pmol/min/mg protein
- Inhibition of BROD activity ([3]; 1, 10 or 100 µM NVP): does not lead to inhibition
